Experimental data published in publication PMC10175918 (Communications Biology, 2023).
Like-named read-outs stand apart in the source and are kept apart here.

Tests used:
Assay in all cases: TGFα-shedding assay-based GPCR screening with chimeric Gα subunit proteins
Type in all cases: cell-based
Conditions in all cases: 10µM, Favipiravir 100μM
348 GPCRs [1] = molecular target: T1, 348 GPCRs (Homo sapiens, UniProt P43657)
T1 construct: expressed in transfected cells; host or cells: HEK293A
T1 sequence (P43657 1-344): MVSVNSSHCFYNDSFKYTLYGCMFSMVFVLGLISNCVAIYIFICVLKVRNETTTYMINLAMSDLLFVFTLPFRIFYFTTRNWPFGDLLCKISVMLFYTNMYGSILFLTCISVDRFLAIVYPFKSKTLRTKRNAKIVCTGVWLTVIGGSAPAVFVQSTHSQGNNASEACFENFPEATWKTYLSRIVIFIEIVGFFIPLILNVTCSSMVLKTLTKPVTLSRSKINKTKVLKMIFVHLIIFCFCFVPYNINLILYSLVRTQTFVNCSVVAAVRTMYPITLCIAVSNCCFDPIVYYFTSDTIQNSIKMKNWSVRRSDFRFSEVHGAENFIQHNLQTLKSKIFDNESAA

348 GPCRs [2] = molecular target: T2, 348 GPCRs (Homo sapiens, UniProt Q96LB2)
T2 construct: expressed in transfected cells; host or cells: HEK293A
T2 sequence (Q96LB2 whole entry): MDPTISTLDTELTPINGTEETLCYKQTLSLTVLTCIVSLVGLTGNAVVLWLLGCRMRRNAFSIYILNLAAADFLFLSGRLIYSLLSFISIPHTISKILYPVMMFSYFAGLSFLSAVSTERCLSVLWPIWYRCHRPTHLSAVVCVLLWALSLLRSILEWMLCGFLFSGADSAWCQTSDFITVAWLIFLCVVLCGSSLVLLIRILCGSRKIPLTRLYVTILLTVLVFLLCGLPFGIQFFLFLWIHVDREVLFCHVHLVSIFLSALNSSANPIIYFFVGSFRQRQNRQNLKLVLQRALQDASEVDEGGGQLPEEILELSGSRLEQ

348 GPCRs [3] = molecular target: 348 GPCRs (Homo sapiens, UniProt P30989)
Chain of 348 GPCRs (Homo sapiens, UniProt P30989) (P30989 whole entry): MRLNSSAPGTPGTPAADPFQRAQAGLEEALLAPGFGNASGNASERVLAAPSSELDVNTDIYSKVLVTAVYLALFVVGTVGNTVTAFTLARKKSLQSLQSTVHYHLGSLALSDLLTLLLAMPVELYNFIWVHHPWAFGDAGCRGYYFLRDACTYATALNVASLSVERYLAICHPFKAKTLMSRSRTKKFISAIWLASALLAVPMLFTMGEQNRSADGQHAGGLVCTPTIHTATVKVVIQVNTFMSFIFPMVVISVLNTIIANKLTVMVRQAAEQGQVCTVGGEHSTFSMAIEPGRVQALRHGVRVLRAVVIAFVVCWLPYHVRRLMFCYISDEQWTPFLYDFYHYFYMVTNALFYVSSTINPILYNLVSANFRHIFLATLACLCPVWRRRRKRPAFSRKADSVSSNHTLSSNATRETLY

348 GPCRs [4] = molecular target: T3, 348 GPCRs (Homo sapiens, UniProt P25929)
T3 construct: expressed in transfected cells; host or cells: HEK293A
T3 sequence (P25929 1-384): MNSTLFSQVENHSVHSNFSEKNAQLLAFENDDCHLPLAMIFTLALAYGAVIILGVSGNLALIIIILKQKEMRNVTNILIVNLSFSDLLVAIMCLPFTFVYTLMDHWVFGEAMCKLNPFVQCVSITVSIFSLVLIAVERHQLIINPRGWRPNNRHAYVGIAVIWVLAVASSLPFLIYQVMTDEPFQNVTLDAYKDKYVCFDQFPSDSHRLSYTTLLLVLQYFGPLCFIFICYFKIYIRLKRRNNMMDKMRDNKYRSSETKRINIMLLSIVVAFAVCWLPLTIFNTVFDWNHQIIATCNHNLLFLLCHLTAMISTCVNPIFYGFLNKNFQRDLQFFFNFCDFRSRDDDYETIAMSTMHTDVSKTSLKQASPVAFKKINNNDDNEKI

348 GPCRs [5] = molecular target: T4, 348 GPCRs (Homo sapiens, UniProt P43119)
T4 construct: expressed in transfected cells; host or cells: HEK293A
T4 sequence (P43119 whole entry): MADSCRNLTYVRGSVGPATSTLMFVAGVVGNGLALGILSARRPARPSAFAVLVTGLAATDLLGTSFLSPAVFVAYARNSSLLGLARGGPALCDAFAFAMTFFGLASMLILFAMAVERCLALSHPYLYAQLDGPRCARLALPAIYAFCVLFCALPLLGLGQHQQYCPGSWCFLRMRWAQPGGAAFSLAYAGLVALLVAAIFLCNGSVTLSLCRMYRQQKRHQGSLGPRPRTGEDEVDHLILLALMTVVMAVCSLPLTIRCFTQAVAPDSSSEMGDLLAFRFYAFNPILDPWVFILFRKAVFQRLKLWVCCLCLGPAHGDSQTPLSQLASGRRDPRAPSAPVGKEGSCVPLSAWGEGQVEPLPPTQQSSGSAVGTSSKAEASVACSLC

348 GPCRs [6] = molecular target: 348 GPCRs (Homo sapiens, UniProt P14416)
Chain of 348 GPCRs (Homo sapiens, UniProt P14416) (P14416 whole entry): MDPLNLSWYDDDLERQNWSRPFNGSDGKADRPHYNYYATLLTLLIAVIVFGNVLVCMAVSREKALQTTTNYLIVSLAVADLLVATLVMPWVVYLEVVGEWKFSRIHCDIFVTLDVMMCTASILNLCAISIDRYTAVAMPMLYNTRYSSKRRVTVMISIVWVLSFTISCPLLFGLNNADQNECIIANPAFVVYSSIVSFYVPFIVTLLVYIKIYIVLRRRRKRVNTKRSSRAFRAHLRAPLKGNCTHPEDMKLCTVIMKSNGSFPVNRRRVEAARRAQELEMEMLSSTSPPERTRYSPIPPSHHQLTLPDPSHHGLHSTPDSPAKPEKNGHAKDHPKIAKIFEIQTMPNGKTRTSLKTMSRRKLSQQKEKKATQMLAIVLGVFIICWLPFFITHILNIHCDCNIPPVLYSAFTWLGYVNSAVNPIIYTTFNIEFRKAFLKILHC

348 GPCRs [7] = molecular target: T5, 348 GPCRs (Homo sapiens, UniProt Q5UAW9)
T5 construct: expressed in transfected cells; host or cells: HEK293A
T5 sequence (Q5UAW9 whole entry): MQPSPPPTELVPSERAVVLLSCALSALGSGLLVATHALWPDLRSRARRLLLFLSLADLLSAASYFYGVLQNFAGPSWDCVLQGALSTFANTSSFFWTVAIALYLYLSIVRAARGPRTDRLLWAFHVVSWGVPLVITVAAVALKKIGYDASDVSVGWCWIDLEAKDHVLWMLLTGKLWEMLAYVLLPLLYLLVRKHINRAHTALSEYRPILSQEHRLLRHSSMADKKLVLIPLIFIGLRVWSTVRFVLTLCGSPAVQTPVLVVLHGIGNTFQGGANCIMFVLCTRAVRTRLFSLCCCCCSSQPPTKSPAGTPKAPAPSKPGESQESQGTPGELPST

348 GPCRs [8] = molecular target: T6, 348 GPCRs (Homo sapiens, UniProt Q99679)
T6 construct: expressed in transfected cells; host or cells: HEK293A
T6 sequence (Q99679 whole entry): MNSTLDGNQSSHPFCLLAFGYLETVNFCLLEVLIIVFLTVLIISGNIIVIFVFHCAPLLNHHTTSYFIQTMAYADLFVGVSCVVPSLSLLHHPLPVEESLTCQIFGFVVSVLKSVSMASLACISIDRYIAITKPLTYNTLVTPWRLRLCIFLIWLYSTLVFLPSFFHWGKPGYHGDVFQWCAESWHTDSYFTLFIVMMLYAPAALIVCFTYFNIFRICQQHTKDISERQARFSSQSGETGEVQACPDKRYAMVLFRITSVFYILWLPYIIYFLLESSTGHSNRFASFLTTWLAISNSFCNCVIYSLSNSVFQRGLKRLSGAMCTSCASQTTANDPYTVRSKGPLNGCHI

348 GPCRs [9] = molecular target: T7, 348 GPCRs (Homo sapiens, UniProt Q9GZQ6)
T7 construct: expressed in transfected cells; host or cells: HEK293A
T7 sequence (Q9GZQ6 whole entry): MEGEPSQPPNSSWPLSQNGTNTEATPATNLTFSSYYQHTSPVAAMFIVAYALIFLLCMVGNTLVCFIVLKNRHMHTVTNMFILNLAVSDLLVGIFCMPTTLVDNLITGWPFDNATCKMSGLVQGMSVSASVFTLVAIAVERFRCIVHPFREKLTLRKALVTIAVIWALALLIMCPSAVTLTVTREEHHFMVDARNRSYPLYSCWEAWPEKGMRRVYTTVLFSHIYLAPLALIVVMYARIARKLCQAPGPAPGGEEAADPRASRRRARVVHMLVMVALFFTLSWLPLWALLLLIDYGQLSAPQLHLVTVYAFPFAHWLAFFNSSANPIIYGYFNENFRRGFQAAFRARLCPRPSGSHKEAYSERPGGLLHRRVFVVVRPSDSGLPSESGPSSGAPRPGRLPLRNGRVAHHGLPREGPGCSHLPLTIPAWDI

348 GPCRs [10] = molecular target: T8, 348 GPCRs (Homo sapiens, UniProt P49685)
T8 sequence (P49685 1-360): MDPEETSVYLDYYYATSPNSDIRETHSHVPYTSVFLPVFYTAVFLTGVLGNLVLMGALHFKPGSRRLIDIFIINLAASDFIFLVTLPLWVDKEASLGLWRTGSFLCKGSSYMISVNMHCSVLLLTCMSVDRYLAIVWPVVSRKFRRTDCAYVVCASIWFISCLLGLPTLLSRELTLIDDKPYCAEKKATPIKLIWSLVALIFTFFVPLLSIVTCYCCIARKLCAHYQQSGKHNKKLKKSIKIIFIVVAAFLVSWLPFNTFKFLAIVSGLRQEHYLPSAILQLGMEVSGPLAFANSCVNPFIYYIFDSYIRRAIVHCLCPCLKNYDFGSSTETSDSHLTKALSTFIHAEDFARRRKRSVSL

348 GPCRs [11] = molecular target: T9, 348 GPCRs (Homo sapiens, UniProt P41594)
T9 construct: expressed in transfected cells; host or cells: HEK293A
T9 sequence (P41594 21-1212): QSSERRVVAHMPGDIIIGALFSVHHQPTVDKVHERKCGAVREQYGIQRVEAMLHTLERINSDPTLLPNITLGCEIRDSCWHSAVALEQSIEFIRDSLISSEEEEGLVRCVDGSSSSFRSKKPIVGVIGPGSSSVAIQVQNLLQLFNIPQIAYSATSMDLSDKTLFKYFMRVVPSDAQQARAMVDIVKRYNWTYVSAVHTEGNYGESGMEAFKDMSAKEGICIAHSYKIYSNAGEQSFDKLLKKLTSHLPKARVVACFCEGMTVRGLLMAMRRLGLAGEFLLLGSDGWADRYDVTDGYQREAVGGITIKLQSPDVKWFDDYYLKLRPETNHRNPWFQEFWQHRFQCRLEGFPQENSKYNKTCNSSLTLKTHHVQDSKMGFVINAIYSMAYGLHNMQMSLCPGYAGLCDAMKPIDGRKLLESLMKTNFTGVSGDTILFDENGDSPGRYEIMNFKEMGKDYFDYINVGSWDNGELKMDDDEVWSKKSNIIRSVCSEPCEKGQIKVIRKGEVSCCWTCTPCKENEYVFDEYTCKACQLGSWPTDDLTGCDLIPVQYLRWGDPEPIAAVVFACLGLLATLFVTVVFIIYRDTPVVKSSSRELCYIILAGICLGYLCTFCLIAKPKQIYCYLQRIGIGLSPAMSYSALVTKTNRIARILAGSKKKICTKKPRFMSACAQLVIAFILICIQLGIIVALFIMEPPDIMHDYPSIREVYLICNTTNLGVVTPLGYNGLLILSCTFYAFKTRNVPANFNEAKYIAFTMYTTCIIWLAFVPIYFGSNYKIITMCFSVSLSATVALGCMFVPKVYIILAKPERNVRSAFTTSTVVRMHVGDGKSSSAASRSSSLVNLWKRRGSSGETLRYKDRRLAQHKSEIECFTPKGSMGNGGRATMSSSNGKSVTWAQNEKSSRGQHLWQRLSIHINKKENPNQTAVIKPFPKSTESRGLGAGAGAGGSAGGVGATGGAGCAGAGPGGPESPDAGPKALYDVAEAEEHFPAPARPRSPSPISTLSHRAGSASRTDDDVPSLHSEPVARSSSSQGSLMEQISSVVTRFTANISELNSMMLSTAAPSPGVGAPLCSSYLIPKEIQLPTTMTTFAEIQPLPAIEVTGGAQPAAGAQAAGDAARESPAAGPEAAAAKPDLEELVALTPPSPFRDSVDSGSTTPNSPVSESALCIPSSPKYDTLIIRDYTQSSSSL

348 GPCRs [12] = molecular target: T10, 348 GPCRs (Homo sapiens, UniProt Q16581)
T10 sequence (Q16581 1-482): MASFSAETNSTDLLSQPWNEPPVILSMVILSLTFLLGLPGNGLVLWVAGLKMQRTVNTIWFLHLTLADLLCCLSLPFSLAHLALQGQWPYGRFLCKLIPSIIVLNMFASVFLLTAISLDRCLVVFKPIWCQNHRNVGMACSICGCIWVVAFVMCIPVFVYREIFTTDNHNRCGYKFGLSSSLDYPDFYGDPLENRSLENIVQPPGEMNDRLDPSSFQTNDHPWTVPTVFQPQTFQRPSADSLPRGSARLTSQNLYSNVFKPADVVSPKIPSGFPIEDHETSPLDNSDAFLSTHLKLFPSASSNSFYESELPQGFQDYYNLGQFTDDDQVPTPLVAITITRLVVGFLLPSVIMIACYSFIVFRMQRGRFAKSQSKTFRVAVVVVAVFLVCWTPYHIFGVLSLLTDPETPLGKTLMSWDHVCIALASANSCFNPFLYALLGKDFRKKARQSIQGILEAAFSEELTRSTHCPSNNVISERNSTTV

[13] = read-out: % GPCR activation compared to TPA, LPAR6 (lysophosphatidic acid receptor 6)
[14] = read-out: % GPCR activation compared to TPA, MRGPRX1 (MAS-related GPR, member X1)
[15] = read-out: % GPCR activation compared to TPA, NTSR1(CO) (neurotensin receptor 1)
[16] = read-out: % GPCR activation compared to TPA, NPY1R (neuropeptide Y receptor Y1)
[17] = read-out: % GPCR activation compared to TPA, IP (prostaglandin I2 (prostacyclin) receptor)
[18] = read-out: % GPCR activation compared to TPA, D2 (dopamine receptor D2)
[19] = read-out: % GPCR activation compared to TPA, GPR157 (G Protein-Coupled Receptor 157)
[20] = read-out: % GPCR activation compared to TPA, GPR21 (G Protein-Coupled Receptor 21)
[21] = read-out: % GPCR activation compared to TPA, NPFFR1 (neuropeptide FF receptor 1)
[22] = read-out: % GPCR activation compared to TPA, GPR15 (G protein-coupled receptor 15)
[23] = read-out: % GPCR activation compared to TPA, GRM5 (glutamate receptor, metabotropic 5)
[24] = read-out: % GPCR activation compared to TPA, C3AR1 (complement C3a receptor 1)
[25] = LPAR6 (lysophosphatidic acid receptor 6), read-out: % GPCR activation compared to TPA
[26] = MRGPRX1 (MAS-related GPR, member X1), read-out: % GPCR activation compared to TPA
[27] = NTSR1(CO) (neurotensin receptor 1), read-out: % GPCR activation compared to TPA
[28] = NPY1R (neuropeptide Y receptor Y1), read-out: % GPCR activation compared to TPA
[29] = IP (prostaglandin I2 (prostacyclin) receptor), read-out: % GPCR activation compared to TPA
[30] = D2 (dopamine receptor D2), read-out: % GPCR activation compared to TPA
[31] = GPR157 (G Protein-Coupled Receptor 157), read-out: % GPCR activation compared to TPA
[32] = GPR21 (G Protein-Coupled Receptor 21), read-out: % GPCR activation compared to TPA
[33] = NPFFR1 (neuropeptide FF receptor 1), read-out: % GPCR activation compared to TPA
[34] = GPR15 (G protein-coupled receptor 15), read-out: % GPCR activation compared to TPA
[35] = GRM5 (glutamate receptor, metabotropic 5), read-out: % GPCR activation compared to TPA
[36] = C3AR1 (complement C3a receptor 1), read-out: % GPCR activation compared to TPA

SMILES	activation at 10 µM (348 GPCRs [1]; [13])	activation at 100 µM (348 GPCRs [2]; [14])	activation at 100 µM (348 GPCRs [3]; [15])	activation at 100 µM (348 GPCRs [4]; [16])	activation at 100 µM (348 GPCRs [5]; [17])	activation at 100 µM (348 GPCRs [6]; [18])	activation at 10 µM (348 GPCRs [7]; [19])	activation at 100 µM (348 GPCRs [8]; [20])	activation at 10 µM (348 GPCRs [1]; [25])	activation at 100 µM (348 GPCRs [2]; [26])	activation at 100 µM (348 GPCRs [3]; [27])	activation at 100 µM (348 GPCRs [4]; [28])	activation at 100 µM (348 GPCRs [5]; [29])	activation at 100 µM (348 GPCRs [6]; [30])	activation at 10 µM (348 GPCRs [7]; [31])	activation at 100 µM (348 GPCRs [8]; [32])	activation at 10 µM (348 GPCRs [9]; [33])	activation at 100 µM (348 GPCRs [10]; [34])	activation at 10 µM (348 GPCRs [11]; [35])	activation at 10 µM (348 GPCRs [12]; [36])	further results
CC(C)OC(=O)[C@H](C)N[P@](=O)(OC[C@H]1O[C@@H](n2ccc(=O)[nH]c2=O)[C@](C)(F)[C@@H]1O)Oc1ccccc1 [sofosbuvir]	0.0867%	-1.41%	-8.04%	-0.539%	-1.51%	-0.334%	3.51%	0.161%													activation at 10 µM (348 GPCRs [9]; [21]): -1.9%; activation at 100 µM (348 GPCRs [10]; [22]): -12.9%; activation at 10 µM (348 GPCRs [11]; [23]): 3.55%; activation at 10 µM (348 GPCRs [12]; [24]): -0.133%
CC(C)C(=O)OC[C@H]1O[C@@H](n2ccc(NO)nc2=O)[C@H](O)[C@@H]1O [molnupiravir]									-2.83%	-2.42%	-6.1%	-1.55%	-1.76%	-0.0472%	-0.773%	0.1%	-0.462%	-0.0279%	0.891%	-0.773%	
NC(=O)c1nc(F)cnc1O [favipiravir, 6-fluoro-3-hydroxy-2-pyrazinecarboxamide]									-2.1%	-1.16%	-1.75%	-1.15%	-2.05%	4.37%	-0.889%	-0.0313%	-3.31%	1.23%	0.818%	1.69%	
N#C[C@@]1(c2ccc3c(N)ncnn23)O[C@H](CO)[C@@H](O)[C@H]1O [GS441524]									-2.57%	-1.59%	-0.341%	-0.88%	-1.08%	4.14%	-1.23%	0.0472%	1.07%	-0.752%	1.65%	3.33%	
CCC(CC)COC(=O)[C@H](C)N[P@](=O)(OC[C@H]1O[C@@](C#N)(c2ccc3c(N)ncnn23)[C@H](O)[C@@H]1O)Oc1ccccc1 [remdesivir]	-2.67%	0.23%	-1.56%	0.0788%	-0.107%	6.53%	1.04%	-0.776%													activation at 10 µM (348 GPCRs [9]; [21]): -0.49%; activation at 100 µM (348 GPCRs [10]; [22]): -0.0536%; activation at 10 µM (348 GPCRs [11]; [23]): 2.34%; activation at 10 µM (348 GPCRs [12]; [24]): 6.7%
